From US5576429A, “5-substituted pyrimidine nucleosides and nucleotides” (Medivir AB, priority 1988, dated 1996)
Where two headings read alike, the source gives them in different places. Each block holds one compound with its values, some of them ahead of it.

Tests used:
[1] = Test II Cellular toxicity on F5000 cells (cell number after 48 h); assay type: cell-based, human; settings: human, read-out: % inhibition of cell multiplication, F 5000
Protocol: (§1) Test II Cellular toxicity
(§2) F5000 cells, which are human embryo cells, 1×10^5 cells per plate, are incubated in Eagle's minimal essential medium, supplemented with Earle's salts, non-essential amino acids, 10% fetal calf serum, 10 mM hepes, 70 mg/l penicillin and 100 mg/l streptomycin, in absence or presence of test compounds. The number of cells per plate is determined after 48 h.

[2] = system: HIV (HTLV-IIIB); assay: Test I Effect of compounds on HIV in H9 cells (frequency of HIV antigen containing cells); assay type: cell-based
Protocol: Test I Effect of compounds of the formula I on HIV in H9 cells
Materials and methods: HIV infection of H9 cells
H9 cells, 10^5 cells per well on a 24 well plate, suspended in 2 ml RPMI-medium containing 10% fetal calf serum, 100 μg/ml pencillin, 10 μg/ml streptomycin sulfate and 2 μg/ml polybrene are exposed to HIV (HTLV-IIIB) and different concentrations of the test compounds. The plates are incubated at 37° C. in 5% CO2 for 6-7 days. The contents in each well is then homogenized with a pipette and transferred to a centrifuge tube. After centrifugation for 10 min at 1500 rpm the supernatant is removed and the cell pellet is analyzed by fixing in methanol on glass plates. Human HIV positive serum diluted 1:80 or 1:160 is added and incubated for 30 min at 37° C. The plate is then washed with phosphate-buffered saline (PBS) containing Ca^2+ and Mg^2 +. Sheep antihuman conjugate (FITC) is added and after a new incubation the plate is again washed with PBS. Contrast staining is done with Evans blue and after drying the frequency of HIV antigen containing cells is determined in a microscope.

[3] = Test II Cellular toxicity on H9 cells (cell number after 48 h); assay type: cell-based; settings: human, read-out: % inhibition of cell multiplication, H9
[4] = biological target: T1, Hepatit B virus DNA polymerase (Hepatitis B virus genotype D subtype ayw, UniProt P03156); assay: Test III Inhibition of HBV DNA polymerase by triphosphates; assay type: biochemical; settings: virus preparation from human serum, endogenous nucleic acid as template; read-out: Concentration for 50% inhibition (IC50) of HBV DNAP
T1 construct: The HBV-DNAP was prepared from virus obtained from human serum; from tissue; host or cells: hepatitis B virus particles from human serum, solubilized with Nonidet P40
From the text: (§3) Test III Inhibition of reverse transcriptases and DNA polymerases by triphosphates of compounds of the invention
(§4) The 5'-triphosphates were synthesized essentially as described (Yoshikawa, M, Kato T, Takenishi T, Bull. Chem. Soc. (Japan), 42,3505-3508, 1969; Ludwig, J., Acta Biochim. Biophys. Acad. Sci. Hung. 16, 131-133, 1981; Ruth, J. L., Cheng, Y. C., Mol. Pharmacol. 20, 415 1981.) The HIV-RT was obtained as described by Hansen et al (Hansen J, Schulze T and Moelling K, J. Biol. Chem. 262, 12393-12396, 1987) from culture of Escherichia coli expressing the cloned HIV-pol gene. The HBV-DNAP was prepared from virus obtained from human serum, essentially as described by Nordenfelt et al (1987) [Nordenfelt E, Lofgren B, Chattopadhyaya J., Oberg B, J. Med. Virol. 22, 231-236, 1987]. The HSV-2 DNAP and cellular DNAPα preparation and reaction conditions have been described by Larsson et al [Larsson A, Sundqvist A, Parnerud A-M, 1986, Mol. Pharmacol. 29, 614-621]. […] The hepatitis B virus enzyme activity was determined with a virus preparation solubilized by non-idet P40, and endogenous nucleic acid as template, as described by Nordenfelt et al (vide supra)

[5] = biological target: T2, Human immuno deficiency virus reverse transcriptase (Human immunodeficiency virus type 1 group M subtype B, UniProt P04585); assay: Test III Inhibition of HIV reverse transcriptase by triphosphates; assay type: biochemical; settings: template (rA)n(dT)12-18, substrate dTTP; read-out: Concentration for 50% inhibition (IC50) of HIV RT
T2 construct: Human immuno deficiency virus reverse transcriptase; made in house; host or cells: Escherichia coli
From the text: as §3, §4

[6] = biological target: T3, DNA polymerase alpha (Homo sapiens, UniProt P09884); assay: Test III Inhibition of cellular DNA polymerase alpha by triphosphates; assay type: biochemical; settings: cellular DNAPα; read-out: Concentration for 50% inhibition (IC50) of DNAPα
T3 sequence (P09884 1-1462): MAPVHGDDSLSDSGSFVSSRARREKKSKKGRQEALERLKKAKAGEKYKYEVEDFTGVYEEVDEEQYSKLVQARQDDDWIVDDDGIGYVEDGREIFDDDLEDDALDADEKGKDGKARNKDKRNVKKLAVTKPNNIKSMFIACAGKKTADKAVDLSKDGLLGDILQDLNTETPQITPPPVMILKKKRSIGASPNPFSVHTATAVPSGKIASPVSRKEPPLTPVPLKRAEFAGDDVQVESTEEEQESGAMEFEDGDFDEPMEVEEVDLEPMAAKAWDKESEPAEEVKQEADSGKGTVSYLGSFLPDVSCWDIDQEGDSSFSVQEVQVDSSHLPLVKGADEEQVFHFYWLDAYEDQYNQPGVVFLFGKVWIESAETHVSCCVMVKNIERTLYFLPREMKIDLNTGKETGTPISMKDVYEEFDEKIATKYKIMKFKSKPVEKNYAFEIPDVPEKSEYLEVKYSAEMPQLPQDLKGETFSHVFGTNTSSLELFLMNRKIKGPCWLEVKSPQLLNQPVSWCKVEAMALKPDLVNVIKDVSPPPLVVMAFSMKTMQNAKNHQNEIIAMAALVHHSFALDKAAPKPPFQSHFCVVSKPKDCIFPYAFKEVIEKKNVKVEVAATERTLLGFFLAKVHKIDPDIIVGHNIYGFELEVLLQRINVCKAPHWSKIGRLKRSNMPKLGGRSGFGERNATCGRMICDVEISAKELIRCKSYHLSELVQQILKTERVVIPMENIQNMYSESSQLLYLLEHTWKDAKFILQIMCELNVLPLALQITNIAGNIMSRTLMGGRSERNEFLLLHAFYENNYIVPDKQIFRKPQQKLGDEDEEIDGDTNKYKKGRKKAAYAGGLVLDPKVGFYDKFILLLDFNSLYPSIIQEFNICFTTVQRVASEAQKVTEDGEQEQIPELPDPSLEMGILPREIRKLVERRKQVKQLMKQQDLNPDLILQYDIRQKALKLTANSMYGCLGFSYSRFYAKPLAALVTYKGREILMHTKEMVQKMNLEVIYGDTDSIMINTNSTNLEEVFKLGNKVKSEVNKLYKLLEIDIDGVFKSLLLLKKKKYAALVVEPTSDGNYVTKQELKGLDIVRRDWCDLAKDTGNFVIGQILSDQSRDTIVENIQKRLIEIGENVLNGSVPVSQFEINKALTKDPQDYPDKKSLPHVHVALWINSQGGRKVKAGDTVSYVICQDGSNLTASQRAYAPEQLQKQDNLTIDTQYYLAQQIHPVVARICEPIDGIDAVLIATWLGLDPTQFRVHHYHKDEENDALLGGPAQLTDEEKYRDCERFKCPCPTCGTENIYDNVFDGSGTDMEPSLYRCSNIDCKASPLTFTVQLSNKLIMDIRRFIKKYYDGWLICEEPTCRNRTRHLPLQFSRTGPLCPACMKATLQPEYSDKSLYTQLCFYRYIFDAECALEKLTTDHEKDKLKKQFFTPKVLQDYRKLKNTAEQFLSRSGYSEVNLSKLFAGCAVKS
From the text: as §3, §4

[7] = biological target: Herpes simplex virus type 2 DNA polymerase (Human herpesvirus 2, UniProt P89453); assay: Test III Inhibition of HSV-2 DNA polymerase by triphosphates; assay type: biochemical; settings: read-out: Concentration for 50% inhibition (IC50) of HSV-2 DNAP
From the text: as §3, §4

[8] = system: F5000 cells; assay: Test II Cellular toxicity on F5000 cells (cell number after 48 h); assay type: cell-based, human; settings: 100 μM
Protocol: as §1, §2

[9] = system: H9 cells; assay: Test II Cellular toxicity on H9 cells (cell number after 48 h); assay type: cell-based; settings: 200 μM
[10] = Human immunodeficiency virus 1, IIIB, H9, read-out: Concentration for 50% inhibition (IC50) of human immuno deficiency virus multiplication in cell culture
[11] = Human immunodeficiency virus 1, H9 cells, HIV (HTLV-IIIB), 6-7 days, read-out: Concentration for 50% inhibition (IC50) of human immuno deficiency virus multiplication in cell culture

Chain of Herpes simplex virus type 2 DNA polymerase (P89453 whole entry): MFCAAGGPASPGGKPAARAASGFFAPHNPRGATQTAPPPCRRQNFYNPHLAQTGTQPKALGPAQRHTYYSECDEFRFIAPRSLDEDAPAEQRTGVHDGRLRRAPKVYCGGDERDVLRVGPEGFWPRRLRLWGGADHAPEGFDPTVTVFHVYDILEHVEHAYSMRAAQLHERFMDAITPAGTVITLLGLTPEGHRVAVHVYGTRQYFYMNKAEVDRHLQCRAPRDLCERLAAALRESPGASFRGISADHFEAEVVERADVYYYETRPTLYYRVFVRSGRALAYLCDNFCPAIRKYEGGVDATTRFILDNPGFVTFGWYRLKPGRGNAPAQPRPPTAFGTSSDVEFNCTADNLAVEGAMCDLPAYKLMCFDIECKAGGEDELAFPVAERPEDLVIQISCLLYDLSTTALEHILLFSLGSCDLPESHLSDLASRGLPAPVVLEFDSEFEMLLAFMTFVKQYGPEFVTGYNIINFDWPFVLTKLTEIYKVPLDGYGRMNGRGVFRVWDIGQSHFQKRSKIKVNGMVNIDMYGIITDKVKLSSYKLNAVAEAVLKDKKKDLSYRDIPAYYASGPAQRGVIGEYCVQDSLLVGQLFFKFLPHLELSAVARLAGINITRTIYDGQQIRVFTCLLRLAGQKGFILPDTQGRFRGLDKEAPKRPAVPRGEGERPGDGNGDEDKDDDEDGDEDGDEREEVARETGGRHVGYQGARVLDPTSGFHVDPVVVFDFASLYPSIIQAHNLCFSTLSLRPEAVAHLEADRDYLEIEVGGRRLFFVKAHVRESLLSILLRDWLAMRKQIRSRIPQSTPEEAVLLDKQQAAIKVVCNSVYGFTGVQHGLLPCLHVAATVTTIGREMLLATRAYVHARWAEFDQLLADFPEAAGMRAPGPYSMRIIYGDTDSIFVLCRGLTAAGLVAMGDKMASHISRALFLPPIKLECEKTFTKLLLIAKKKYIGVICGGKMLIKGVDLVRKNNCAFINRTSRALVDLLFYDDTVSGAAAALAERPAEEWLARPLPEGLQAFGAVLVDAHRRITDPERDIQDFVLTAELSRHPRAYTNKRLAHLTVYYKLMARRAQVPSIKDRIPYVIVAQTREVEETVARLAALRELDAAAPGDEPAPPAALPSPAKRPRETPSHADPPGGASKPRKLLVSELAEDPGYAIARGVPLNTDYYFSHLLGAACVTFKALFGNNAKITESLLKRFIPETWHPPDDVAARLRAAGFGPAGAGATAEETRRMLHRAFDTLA
T1 sequence (P03156 whole entry): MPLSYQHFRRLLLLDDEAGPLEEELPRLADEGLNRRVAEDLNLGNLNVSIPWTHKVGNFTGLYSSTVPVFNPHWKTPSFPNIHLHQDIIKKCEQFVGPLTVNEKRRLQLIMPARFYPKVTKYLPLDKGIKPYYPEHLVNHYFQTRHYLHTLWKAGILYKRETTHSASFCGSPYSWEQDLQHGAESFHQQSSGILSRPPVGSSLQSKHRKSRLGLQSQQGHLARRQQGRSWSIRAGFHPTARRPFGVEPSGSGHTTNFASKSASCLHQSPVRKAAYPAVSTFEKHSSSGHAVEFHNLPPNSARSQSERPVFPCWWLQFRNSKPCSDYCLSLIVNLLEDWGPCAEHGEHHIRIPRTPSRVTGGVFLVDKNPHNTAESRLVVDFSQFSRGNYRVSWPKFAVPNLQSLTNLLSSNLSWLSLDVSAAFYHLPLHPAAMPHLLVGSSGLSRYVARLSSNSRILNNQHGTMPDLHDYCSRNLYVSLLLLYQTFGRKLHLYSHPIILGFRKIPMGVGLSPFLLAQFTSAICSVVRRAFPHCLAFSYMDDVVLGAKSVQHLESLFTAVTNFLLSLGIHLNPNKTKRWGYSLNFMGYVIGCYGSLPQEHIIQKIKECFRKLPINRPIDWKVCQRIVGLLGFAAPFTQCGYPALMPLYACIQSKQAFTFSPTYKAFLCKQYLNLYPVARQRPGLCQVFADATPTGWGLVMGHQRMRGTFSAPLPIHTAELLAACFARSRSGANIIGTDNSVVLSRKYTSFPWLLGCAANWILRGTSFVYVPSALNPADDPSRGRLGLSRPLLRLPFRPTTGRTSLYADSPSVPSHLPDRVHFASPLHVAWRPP

SMILES: O=c1[nH]c(=O)n([C@@H]2C[C@H](O)[C@@H](CO)O2)cc1-c1ccc[se]1 [VSA 188]
inhibition at 48 h, 200 µM [1]: 15%
IC50 [2, 10]: 2 to 20 µM
inhibition at 48 h, 200 µM [3]: 40%

SMILES: O=c1[nH]c(=O)n([C@H]2C[C@H](O)[C@@H](COP(=O)(O)OP(=O)(O)OP(=O)(O)O)O2)cc1-c1cccs1 [1-(2-Deoxy-beta-D-ribofuranosyl)-5-(2-thienyl)uracil-5'-triphosphate]
IC50 [4]: 0.11 µM
IC50 [5]: 0.015 µM
IC50 [6]: 1.6 µM
IC50 [7]: 0.06 µM

SMILES: O=c1[nH]c(=O)n([C@H]2C[C@H](O)[C@@H](CO)O2)cc1-c1ccco1 [VSB 008, 1-(2-Deoxy-beta-D-ribofuranosyl)-5-(2-furyl)uracil]
inhibition at 48 h, 200 µM [1]: 0%

SMILES: O=c1[nH]c(=O)n([C@H]2C[C@H](O)[C@@H](CO)O2)cc1-c1cc[se]c1 [VSA 992]
inhibition at 48 h, 200 µM [1]: 0%
inhibition at 48 h, 200 µM [3]: 40%

SMILES: O=c1[nH]c(=O)n([C@H]2C[C@H](O)[C@@H](CO)O2)cc1-c1cccs1 [VSA 189]
% inhibition of cell multiplication, F 5000 [8]: 10%
% inhibition of cell multiplication, H9 [9]: 35%

IC50 [2, 11]: 0.05 to 10 µM
SMILES: O=c1[nH]c(=O)n([C@@H]2C[C@H](O)[C@@H](CO)O2)cc1-c1cccs1 [VSA 134, 1-(2-Deoxy-alpha-D-ribofuranosyl)-5-(2-thienyl)uracil]
inhibition at 48 h, 100 µM ([1]; 100 μM): 0 to 35%
inhibition at 48 h, 250 µM ([3]; 250 μM): 35%

SMILES: O=c1[nH]c(=O)n([C@@H]2C[C@H](O)[C@@H](CO)O2)cc1-c1cc[se]c1 [VSA 996]
inhibition at 48 h, 200 µM [1]: 30%
IC50 [2, 10]: 3 to 100 µM
inhibition at 48 h, 200 µM [3]: 65%

IC50 [2, 11]: < 10 µM
SMILES: O=c1[nH]c(=O)n([C@@H]2C[C@H](O)[C@@H](CO)O2)cc1-c1ccco1 [VSB 007, 1-(2-Deoxy-alpha-D-ribofuranosyl)-5-(2-furyl)uracil]

SMILES: O=c1[nH]c(=O)n([C@@H]2C[C@H](O)[C@@H](COP(=O)(O)OP(=O)(O)OP(=O)(O)O)O2)cc1-c1cccs1 [1-(2-Deoxy-alpha-D-ribofuranasyl)-5-(2-thienyl)uracil-5'-triphosphate]
IC50 [4]: 18 µM
IC50 [5]: 2 µM
IC50 [6]: 80 µM
IC50 [7]: 11 µM
